Data taken from patent publication US9701959B2, “High throughput screen for biologically active polypeptides” (Invenra Inc., priority 2012, dated 2017).
Ends that are not written are not given here.

tested on: E. coli MG1655; experiment: Minimal Inhibitory Concentration (MIC) in E. coli, Alamar Blue, hit validation; type: cell-based; conditions: MIC at 18 hrs in E. coli; overnight at 35° C., triplicate
Method: Equipment: • Absorption and fluorescence plate reader—Tecan Safire • CO2 Incubator
Reagents: • Six chemically synthesized peptides—Biosynthesis Inc. • E. coli MG1655 (ATCC) • LB media (Sigma-Aldrich) • Alamar Blue assay kit (Life Tech)
3) Start an overnight culture of E. coli MG1655 in 5 mL of LB and grow at 37° C. with shaking at 200 rpm. 4) In the morning dilute overnight culture to OD600=0.00075 in 10 mL LB+1 mL Alamar Blue Stain. 5) Make seven (7), 1:2 serial dilutions of each peptide starting at […] in a final volume of 70 μL of PBS. 6) Add 20 μL of serial dilution of peptides in triplicate to a white small volume 96-well plate. Add 20 μl of PBS alone to the 8th well. 7) Add 120 μL of E. coli/Alamar blue dilution to each of the test wells. 8) Incubate overnight (18 hrs) at 35° C.

Row | Compound | Ave MIC [µM]
1 | GIGATVKVLSTGLRFLISWIKRKRKY [Cont 1, reference compound] | >30
2 | GIGAWTKVLTTGLPGLISWIKRKRLR [Hit 3] | 20
3 | GIGAIAKVLSTGLPRLISWIKGKRIR [Cont 2, reference compound] | 15
4 | GIGAVLKVLGTGLPALISWIKFKRFP [Cont 3, reference compound] | >30
5 | GIGALIKVLTTGLPMLISWIKRKRNK [Hit 2] | 14
6 | CC[C@H](C)[C@H](NC(=O)CN)C(=O)NCC(=O)N[C@@H](C)C(=O)N[C@H](C(=O)N[C@@H](CC(C)C)C(=O)N[C@@H](CCCCN)C(=O)N[C@H](C(=O)N[C@@H](CC(C)C)C(=O)N[C@H](C(=O)N[C@H](C(=O)NCC(=O)N[C@@H](CC(C)C)C(=O)N1CCC[C@H]1C(=O)N[C@H](C(=O)N[C@@H](CC(C)C)C(=O)N[C@H](C(=O)N[C@@H](CO)C(=O)N[C@@H](Cc1c[nH]c2ccccc12)C(=O)N[C@H](C(=O)N[C@@H](CCCCN)C(=O)N[C@@H](CO)C(=O)N[C@@H](CCCCN)C(=O)N[C@@H](CCCNC(=N)N)C(=O)N[C@@H](CCC(N)=O)C(=O)N[C@@H](CCCCN)C(=O)O)[C@@H](C)CC)[C@@H](C)CC)[C@@H](C)O)[C@@H](C)O)[C@@H](C)O)C(C)C)C(C)C [Hit 1] | 12

tested on: NF-κB-Jurkat cells (GFP reporter construct for NF-kappa-B); experiment: Single bead bioactivity testing in 1536-well microtiter plate (GFP fluorescence); type: cell-based; conditions: 1 and 2 beads per well, 4,800 cells per well, 18 hours at 37 C
Method: Equipment: • Cell culture incubator (Fisher Scientific) • Microplate reader (Tecan Safire) • Black, clear bottom, 1536-well microtiter plate (Corning)
1) Dilute NF-κB-Jurkat cells to 4×10^6 cells/ml using the supplemented RPMI 1640 growth media.
2) Prepare the 1536 well for the following layout:
3) Add 7. μl of supplemented RMPI 1640 media to all wells labeled “M” in the plate layout above.
4) Create the following cell master mix:
5) Add 3 μl of the cell master mix to the wells labeled “A” and “B” so that when the test and control beads are added the final number of cells is 4,800 per well.
6) Dilute the TNF-bead and Control-beads in supplemented RPMI 1640 to 1-2 beads per 2 μl.
7) Add 2 μl of TNF-beads to the wells of the plate labeled “A” and add 2 μl of the control-beads to the wells of the plate labeled “B”.
8) Incubate the plate for 18 hours at 37 C and 5% CO2.
9) Measure the GFP fluorescence of each well using the Tecan Safire plate reader.
The experiment was performed to determine if a single bead could be used to screen for activity of a protein that induces a cell-reporter in a microtiter plate. 1536 well plates were used to decrease the volume in which the assay was performed. Control beads consisting of a scFv antibody fragment were generated using the same protocol as the tested TNF-beads. The control beads were used to establish a baseline signal for the assay. […]

Row | Compound | GFP signal relative to baseline (control beads)
7 | TNF-beads: His-tag, spacer, TEV cleavage site, spacer, and the soluble form of TNF-alpha, SEQ ID NO: 14, on beads | increased signal over the baseline
